In ChEMBL document CHEMBL1201862, “PubChem BioAssay data set” (2004):
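Each compound was tested at five concentrations against cells in 96-well plates for 48 hours. Here, GI50 denotes the concentration required for 50% inhibition of growth.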 The source made the active and inactive calls. Rule as the data show it: active = GI50 up to about 1.1 µM and inactive = higher.

Columns and labels:
Assay in all cases: NCI-60 cell line screen, 48 h
[1] = test system: ACHN
[2] = test system: CAKI-1
[3] = test system: HCC 2998
[4] = test system: HOP-62
[5] = test system: IGROV-1
[6] = test system: KM12
[7] = test system: M14
[8] = test system: MDA-MB-231
[9] = test system: MDA-MB-435
[10] = test system: NCI-H23
[11] = test system: OVCAR-3
[12] = test system: PC-3
[13] = test system: RPMI-8226
[14] = test system: RXF 393
[15] = test system: SF-295
[16] = test system: SW-620
[17] = test system: UACC-62
[18] = test system: Hs-578T
[19] = test system: SR
[20] = test system: UO-31

SMILES	GI50 [1]	GI50 [2]	GI50 [3]	GI50 [4]	GI50 [5]	GI50 [6]	GI50 [7]	GI50 [8]	GI50 [9]	GI50 [10]	GI50 [11]	GI50 [12]	GI50 [13]	GI50 [14]	GI50 [15]	GI50 [16]	GI50 [17]	GI50 [18]	GI50 [19]	GI50 [20]
O=C(O)C1CCCCN1C(=O)Cc1c[nH]c2ccccc12 (configuration not stated)	> 100 µM (inactive)	> 100 µM (inactive)	> 100 µM (inactive)	> 100 µM (inactive)	> 100 µM (inactive)	> 100 µM (inactive)	> 100 µM (inactive)	29 µM (inactive)	> 100 µM (inactive)	> 100 µM (inactive)	> 100 µM (inactive)	> 100 µM (inactive)	> 100 µM (inactive)	> 100 µM (inactive)	> 100 µM (inactive)	> 100 µM (inactive)	> 100 µM (inactive)	–	–	–
Cc1ccc(C)c(NC(=O)C(=O)C(c2cnc3ccc([N+](=O)[O-])cc3n2)[N+](=O)[O-])c1 (configuration not stated)	26.6 µM (inactive)	–	55.8 µM (inactive)	20.9 µM (inactive)	26.5 µM (inactive)	20.1 µM (inactive)	56.9 µM (inactive)	–	46.2 µM (inactive)	> 100 µM (inactive)	68.1 µM (inactive)	52.1 µM (inactive)	0.102 µM (active)	50.1 µM (inactive)	> 100 µM (inactive)	30 µM (inactive)	64.1 µM (inactive)	> 100 µM (inactive)	34.4 µM (inactive)	29.2 µM (inactive)
CCC(=O)Nc1ccc(NS(=O)(=O)c2ccc(Cl)cc2)cc1	> 100 µM (inactive)	91.4 µM (inactive)	> 100 µM (inactive)	> 100 µM (inactive)	> 100 µM (inactive)	> 100 µM (inactive)	> 100 µM (inactive)	–	> 100 µM (inactive)	> 100 µM (inactive)	43.5 µM (inactive)	> 100 µM (inactive)	17.7 µM (inactive)	> 100 µM (inactive)	45.4 µM (inactive)	> 100 µM (inactive)	99.3 µM (inactive)	> 100 µM (inactive)	89.3 µM (inactive)	> 100 µM (inactive)
C=CCc1cccc(C(=O)/C=C(O)/C=C/c2ccccc2Cl)c1O	23.3 µM (inactive)	42.6 µM (inactive)	33.9 µM (inactive)	16.6 µM (inactive)	0.352 µM (active)	17.2 µM (inactive)	24.5 µM (inactive)	36.7 µM (inactive)	12.4 µM (inactive)	6.12 µM (inactive)	16.6 µM (inactive)	8.38 µM (inactive)	6.67 µM (inactive)	19.5 µM (inactive)	9.27 µM (inactive)	8.43 µM (inactive)	13.4 µM (inactive)	–	4.74 µM (inactive)	9.18 µM (inactive)
CCOC(=O)CCC(C(=O)OCC)n1nc2ccc(Nc3c(C)[n+]([O-])c4cc(Cl)ccc4[n+]3[O-])cc2n1 (configuration not stated)	> 100 µM (inactive)	61.7 µM (inactive)	–	> 100 µM (inactive)	> 100 µM (inactive)	> 100 µM (inactive)	> 100 µM (inactive)	–	69.7 µM (inactive)	> 100 µM (inactive)	> 100 µM (inactive)	76.7 µM (inactive)	19.5 µM (inactive)	30.8 µM (inactive)	82.4 µM (inactive)	> 100 µM (inactive)	66.1 µM (inactive)	59.6 µM (inactive)	10.1 µM (inactive)	81.8 µM (inactive)
O=C(CCc1nnc2s/c(=C\c3ccc(Cl)cc3Cl)c(=O)n12)Nc1cc(Cl)c(Cl)cc1Cl	> 10 µM (inactive)	> 10 µM (inactive)	> 100 µM (inactive)	> 10 µM (inactive)	> 10 µM (inactive)	> 10 µM (inactive)	> 10 µM (inactive)	–	–	> 10 µM (inactive)	> 10 µM (inactive)	–	> 10 µM (inactive)	> 10 µM (inactive)	> 10 µM (inactive)	> 10 µM (inactive)	> 10 µM (inactive)	–	> 10 µM (inactive)	> 10 µM (inactive)
CCCCCCOc1ccc(NC2=C(Cl)C(=O)c3ncccc3C2=O)cc1	> 10 µM (inactive)	–	–	1.92 µM (inactive)	2.77 µM (inactive)	1.33 µM (inactive)	1.88 µM (inactive)	–	1.7 µM (inactive)	1.97 µM (inactive)	2.1 µM (inactive)	1.51 µM (inactive)	–	1.84 µM (inactive)	1.96 µM (inactive)	1.83 µM (inactive)	1.44 µM (inactive)	1.79 µM (inactive)	–	1.39 µM (inactive)
Cc1cc(Br)ccc1NC1=CC(=O)C(=O)c2ccccc21	36.4 µM (inactive)	28.1 µM (inactive)	62.1 µM (inactive)	> 100 µM (inactive)	77.6 µM (inactive)	38.5 µM (inactive)	52.1 µM (inactive)	–	–	10.9 µM (inactive)	35 µM (inactive)	–	36.9 µM (inactive)	30.5 µM (inactive)	38.5 µM (inactive)	29.9 µM (inactive)	20 µM (inactive)	–	15.5 µM (inactive)	94.6 µM (inactive)
O=C(NCCN1CCCCC1)c1cccc(I)c1	> 100 µM (inactive)	> 100 µM (inactive)	> 100 µM (inactive)	–	> 100 µM (inactive)	> 100 µM (inactive)	72.9 µM (inactive)	–	–	> 100 µM (inactive)	> 100 µM (inactive)	> 100 µM (inactive)	> 100 µM (inactive)	> 100 µM (inactive)	–	> 100 µM (inactive)	> 100 µM (inactive)	> 100 µM (inactive)	> 100 µM (inactive)	> 100 µM (inactive)
CC(=O)N/N=C1/CC[C@@]2(C)C(=CC[C@H]3C4CCC(C(C)CCCC(C)C)[C@@]4(C)CCC32)C1(C)C (some centres not stated)	62.4 µM (inactive)	> 100 µM (inactive)	–	> 100 µM (inactive)	57.4 µM (inactive)	46.3 µM (inactive)	48 µM (inactive)	–	82 µM (inactive)	70 µM (inactive)	74.8 µM (inactive)	30.1 µM (inactive)	> 100 µM (inactive)	–	22.3 µM (inactive)	53.3 µM (inactive)	> 100 µM (inactive)	> 100 µM (inactive)	50.9 µM (inactive)	82 µM (inactive)
COc1cccc(-n2c(N)c(-c3nc4cc(C(F)(F)F)ccc4s3)c3ccc([N+](=O)[O-])cc3c2=O)c1	> 100 µM (inactive)	> 100 µM (inactive)	> 100 µM (inactive)	> 100 µM (inactive)	–	> 100 µM (inactive)	> 100 µM (inactive)	> 100 µM (inactive)	> 100 µM (inactive)	> 100 µM (inactive)	> 100 µM (inactive)	> 100 µM (inactive)	> 100 µM (inactive)	–	> 100 µM (inactive)	–	> 100 µM (inactive)	–	–	> 100 µM (inactive)
N#CCc1n[nH]c2nc(SCc3ccccc3)nc(N3CCCCC3)c12	21.2 µM (inactive)	19.9 µM (inactive)	17.5 µM (inactive)	20.4 µM (inactive)	–	17.7 µM (inactive)	19.4 µM (inactive)	–	19.9 µM (inactive)	18.5 µM (inactive)	20.7 µM (inactive)	18.8 µM (inactive)	27.1 µM (inactive)	17.1 µM (inactive)	19.6 µM (inactive)	19.5 µM (inactive)	–	21.4 µM (inactive)	–	20.1 µM (inactive)
